Laboratory results reported in US12138256B2, “Treatment of cardiopulmonary disorders” (Bayer Aktiengesellschaft, priority 2021, dated 2024).

Assays:
sGC (cGMP) = test: Phase I, healthy male subjects, 14 days inhalation: cGMP concentration (C-4.2); assay type: in vivo, human; conditions: for cGMP change from baseline / cGMP concentration, mean +/− SD: 1000 μg
Description: Healthy white male subjects, aged 18 to 45 years and with a body mass index (BMI) above/equal 18.5 and below/equal 29.9 kg/m2 were treated in a clinical pharmacological phase I study for 14 days with inhaled once daily doses of 1000 μg (nominal dose) or Placebo of dry powder of example 4. The subjects inhaled the drug powder from capsules (see under D-1, e.g. tables 17 and 20) inserted into a handheld inhalation device by one deep inhalative breath into the deep parts of the lung. The intended substantial reduction of increased blood pressure in the central pulmonary blood vessels cannot be evaluated in subjects without pathophysiological impairment of lung function. As surrogate for drug concentration in the lung, plasma concentrations over time have been analysed. […] Drug activity/target engagement in healthy men was controlled in the healthy subjects by analysing blood samples for cGMP. Results are shown in as mean in table C4.2.1 and change to baseline in FIG. 76 and table C4.2.2.

systemic blood pressure = test: First clinical studies in healthy volunteers: systemic blood pressure; assay type: in vivo, human; conditions: up to 4000 μg, dry powder inhaled
plasma proteins = test: Protein binding via Transil assay, dog plasma; assay type: in vitro ADME; conditions: dog plasma
Excerpt: The distribution of a test substance between Transil® (phosphatidylcholine lipid bilayers immobilized on silica beads) and plasma is a characteristic feature of any pharmaceutical compound and is dependent on its extent of binding to plasma proteins. By comparing the distribution between Transil® and buffer with the distribution between Transil® and plasma of any species of interest, the unbound fraction in the plasma of the respective animal species can be calculated in vitro. The respective plasma and buffer concentrations were determined via a radioactivity analysis. A detailed description of the method and its validation was published by Schuhmacher et al. (2).

[1] = −0 D 09 H 00 M (pretreatment day)
[2] = −0 D 12 H 00 M (pretreatment day)
[3] = −0 D 16 H 00 M (pretreatment day)
[4] = −0 D 18 H 00 M (pretreatment day)
[5] = −0 D 20 H 00 M (pretreatment day)
[6] = −0 D 22 H 00 M (pretreatment day)

O=C(O)c1ccc(CCN(CCc2ccccc2OCc2ccc(-c3ccc(C(F)(F)F)cc3)cc2Cl)[C@H]2CCCc3nc(C(=O)O)ccc32)cc1 [example 4, (5S)-{[2-(4-Carboxyphenyl)ethyl][2-(2-{[3-chloro-4′-(trifluoromethyl)biphenyl-4-yl]methoxy}phenyl)-ethyl]amino}-5,6,7,8-tetrahydroquinoline-2-carboxylic acid]
time until maximum cGMP values were reached (sGC (cGMP); 1000 μg once daily): 7 days | time until steady state of cGMP concentration (sGC (cGMP); 1000 μg once daily): ≤ 11 days | cGMP change from baseline (sGC (cGMP); 0 D 02 H 00 M): 4840 pM | cGMP concentration, mean +/− SD (sGC (cGMP); 0 D 02 H 00 M): 9170 pM | cGMP change from baseline (sGC (cGMP); 0 D 04 H 00 M): 7290 pM | cGMP concentration, mean +/− SD (sGC (cGMP); 0 D 04 H 00 M): 11600 pM | cGMP change from baseline (sGC (cGMP); 0 D 06 H 00 M): 9950 pM | cGMP concentration, mean +/− SD (sGC (cGMP); 0 D 06 H 00 M): 14300 pM | cGMP change from baseline (sGC (cGMP); 0 D 08 H 00 M): 10600 pM | cGMP concentration, mean +/− SD (sGC (cGMP); 0 D 08 H 00 M): 14900 pM | cGMP change from baseline (sGC (cGMP); 0 D 12 H 00 M): 7530 pM | cGMP concentration, mean +/− SD (sGC (cGMP); 0 D 12 H 00 M): 11800 pM | cGMP change from baseline (sGC (cGMP); 0 D 15 H 00 M): 6740 pM | cGMP concentration, mean +/− SD (sGC (cGMP); 0 D 15 H 00 M): 11100 pM | cGMP change from baseline (sGC (cGMP); 1 D 00 H 00 M): 2980 pM | cGMP concentration, mean +/− SD (sGC (cGMP); 1 D 00 H 00 M): 7310 pM | cGMP change from baseline (sGC (cGMP); 2 D 00 H 00 M): 4550 pM | cGMP concentration, mean +/− SD (sGC (cGMP); 2 D 00 H 00 M): 8880 pM | cGMP change from baseline (sGC (cGMP); 2 D 03 H 00 M): 13000 pM | cGMP concentration, mean +/− SD (sGC (cGMP); 2 D 03 H 00 M): 17300 pM | cGMP change from baseline (sGC (cGMP); 2 D 08 H 00 M): 16400 pM | cGMP concentration, mean +/− SD (sGC (cGMP); 2 D 08 H 00 M): 20800 pM | cGMP change from baseline (sGC (cGMP); 2 D 12 H 00 M): 12600 pM | cGMP concentration, mean +/− SD (sGC (cGMP); 2 D 12 H 00 M): 16900 pM | cGMP change from baseline (sGC (cGMP); 3 D 00 H 00 M): 5160 pM | cGMP concentration, mean +/− SD (sGC (cGMP); 3 D 00 H 00 M): 9490 pM | cGMP change from baseline (sGC (cGMP); 4 D 00 H 00 M): 6360 pM | cGMP concentration, mean +/− SD (sGC (cGMP); 4 D 00 H 00 M): 10700 pM | cGMP change from baseline (sGC (cGMP); 5 D 00 H 00 M): 5920 pM | cGMP concentration, mean +/− SD (sGC (cGMP); 5 D 00 H 00 M): 10300 pM | cGMP change from baseline (sGC (cGMP); 6 D 00 H 00 M): 5090 pM | cGMP concentration, mean +/− SD (sGC (cGMP); 6 D 00 H 00 M): 9420 pM | cGMP change from baseline (sGC (cGMP); 6 D 03 H 00 M): 13400 pM | cGMP concentration, mean +/− SD (sGC (cGMP); 6 D 03 H 00 M): 17700 pM | cGMP change from baseline (sGC (cGMP); 6 D 08 H 00 M): 20100 pM | cGMP concentration, mean +/− SD (sGC (cGMP); 6 D 08 H 00 M): 24500 pM | cGMP change from baseline (sGC (cGMP); 6 D 12 H 00 M): 13900 pM | cGMP concentration, mean +/− SD (sGC (cGMP); 6 D 12 H 00 M): 18200 pM | cGMP change from baseline (sGC (cGMP); 7 D 00 H 00 M): 6180 pM | cGMP concentration, mean +/− SD (sGC (cGMP); 7 D 00 H 00 M): 10500 pM | cGMP change from baseline (sGC (cGMP); 8 D 00 H 00 M): 6200 pM | cGMP concentration, mean +/− SD (sGC (cGMP); 8 D 00 H 00 M): 10500 pM | cGMP change from baseline (sGC (cGMP); 9 D 00 H 00 M): 6580 pM | cGMP concentration, mean +/− SD (sGC (cGMP); 9 D 00 H 00 M): 10900 pM | cGMP change from baseline (sGC (cGMP); 10 D 00 H 00 M): 6450 pM | cGMP concentration, mean +/− SD (sGC (cGMP); 10 D 00 H 00 M): 10800 pM | cGMP change from baseline (sGC (cGMP); 10 D 03 H 00 M): 12700 pM | cGMP concentration, mean +/− SD (sGC (cGMP); 10 D 03 H 00 M): 17100 pM | cGMP change from baseline (sGC (cGMP); 10 D 08 H 00 M): 17500 pM | cGMP concentration, mean +/− SD (sGC (cGMP); 10 D 08 H 00 M): 21900 pM | cGMP change from baseline (sGC (cGMP); 10 D 12 H 00 M): 13000 pM | cGMP concentration, mean +/− SD (sGC (cGMP); 10 D 12 H 00 M): 17300 pM | cGMP change from baseline (sGC (cGMP); 11 D 00 H 00 M): 6940 pM | cGMP concentration, mean +/− SD (sGC (cGMP); 11 D 00 H 00 M): 11300 pM | cGMP change from baseline (sGC (cGMP); 12 D 00 H 00 M): 8060 pM | cGMP concentration, mean +/− SD (sGC (cGMP); 12 D 00 H 00 M): 12400 pM | cGMP change from baseline (sGC (cGMP); 12 D 22 H 00 M): 6950 pM | cGMP concentration, mean +/− SD (sGC (cGMP); 12 D 22 H 00 M): 11300 pM | cGMP change from baseline (sGC (cGMP); 13 D 02 H 00 M): 9120 pM | cGMP concentration, mean +/− SD (sGC (cGMP); 13 D 02 H 00 M): 13400 pM | cGMP change from baseline (sGC (cGMP); 13 D 04 H 00 M): 12900 pM | cGMP concentration, mean +/− SD (sGC (cGMP); 13 D 04 H 00 M): 17300 pM | cGMP change from baseline (sGC (cGMP); 13 D 06 H 00 M): 17000 pM | cGMP concentration, mean +/− SD (sGC (cGMP); 13 D 06 H 00 M): 21400 pM | cGMP change from baseline (sGC (cGMP); 13 D 08 H 00 M): 17700 pM | cGMP concentration, mean +/− SD (sGC (cGMP); 13 D 08 H 00 M): 22000 pM | cGMP change from baseline (sGC (cGMP); 13 D 12 H 00 M): 12900 pM | cGMP concentration, mean +/− SD (sGC (cGMP); 13 D 12 H 00 M): 17200 pM | cGMP change from baseline (sGC (cGMP); 13 D 15 H 00 M): 12100 pM | cGMP concentration, mean +/− SD (sGC (cGMP); 13 D 15 H 00 M): 16400 pM | cGMP change from baseline (sGC (cGMP); 14 D 00 H 00 M): 5410 pM | cGMP concentration, mean +/− SD (sGC (cGMP); 14 D 00 H 00 M): 9740 pM | cGMP change from baseline (sGC (cGMP); 15 D 00 H 00 M): 2520 pM | cGMP concentration, mean +/− SD (sGC (cGMP); 15 D 00 H 00 M): 6850 pM | cGMP change from baseline (sGC (cGMP); 15 D 12 H 00 M): 3040 pM | cGMP concentration, mean +/− SD (sGC (cGMP); 15 D 12 H 00 M): 7370 pM | cGMP change from baseline (sGC (cGMP); 16 D 00 H 00 M): 2000 pM | cGMP concentration, mean +/− SD (sGC (cGMP); 16 D 00 H 00 M): 6330 pM | cGMP change from baseline (sGC (cGMP); 16 D 12 H 00 M): 2410 pM | cGMP concentration, mean +/− SD (sGC (cGMP); 16 D 12 H 00 M): 6740 pM | cGMP change from baseline (sGC (cGMP); 17 D 00 H 00 M): 400 pM | cGMP concentration, mean +/− SD (sGC (cGMP); 17 D 00 H 00 M): 4730 pM | cGMP change from baseline (sGC (cGMP); 20 D 00 H 00 M): 1220 pM | cGMP concentration, mean +/− SD (sGC (cGMP); 20 D 00 H 00 M): 5520 pM | cGMP change from baseline (sGC (cGMP); FOLLOW-UP): 1520 pM | cGMP concentration, mean +/− SD (sGC (cGMP); FOLLOW-UP): 5850 pM | cGMP concentration, mean +/− SD (sGC (cGMP); −0 D 02 H 00 M (prior to first inhalation)): 4330 pM | cGMP change from baseline (sGC (cGMP); [1]): 224 pM | cGMP concentration, mean +/− SD (sGC (cGMP); [1]): 5490 pM | cGMP change from baseline (sGC (cGMP); [2]): 306 pM | cGMP concentration, mean +/− SD (sGC (cGMP); [2]): 5570 pM | cGMP change from baseline (sGC (cGMP); [3]): 676 pM | cGMP concentration, mean +/− SD (sGC (cGMP); [3]): 5940 pM | cGMP change from baseline (sGC (cGMP); [4]): −252.9 +/− 1345.9 | cGMP concentration, mean +/− SD (sGC (cGMP); [4]): 5010 pM | cGMP change from baseline (sGC (cGMP); [5]): −952.9 +/− 1984.7 | cGMP concentration, mean +/− SD (sGC (cGMP); [5]): 4310 pM | cGMP change from baseline (sGC (cGMP); [6]): −100.0 +/− 1403.1 | cGMP concentration, mean +/− SD (sGC (cGMP); [6]): 5160 pM | cGMP concentration, mean +/− SD (sGC (cGMP); −1 D 02 H 00 M (pretreatment day)): 5260 pM | effect on systemic blood pressure in healthy volunteers (systemic blood pressure): no clinically meaningful effect on systemic blood pressure

O=C(O)c1ccc(CCN(CCc2ccccc2OCc2ccc(-c3ccc(C(F)(F)F)cc3)cc2Cl)[C@H]2CCCc3nc(C(=O)O)ccc32)cc1 [comparative example 11, (5S)-5-{[2-(4-carboxyphenyl)ethyl][2-(2-{[3-chloro-4′-(trifluoromethyl)[biphenyl]-4-yl]methoxy}phenyl)ethyl]amino}-5,6,7,8-tetrahydroquinoline-2-carboxylic acid]
fraction unbound, times lower than comparative example 1 (plasma proteins): 10 times
